Results as given in patent EP4667483A1, “HUMAN TRANSFERRIN RECEPTOR-BINDING PEPTIDE” (JCR Pharmaceuticals Co., Ltd., priority 2023, dated 2024).
Numbered stars: 1 amine (or outer) side, 2 acyl side, 3 side chain; on linkers, the order of the positions; unused ones are H or OH. Bridge positions count the residues as written; N and C are the ends. Square brackets hold non-standard residues; d marks the D form. Side chains are listed from the residue outwards. Peptide text beside a SMILES is read from it. * marks the point of attachment. Ala(imidazo(1,2-a)pyr3yl) = N[C@@H](Cc1cnc2ccccn12)C(=O)O; Trp(1-CH2COOH) = N[C@@H](Cc1cn(CC(=O)O)c2ccccc12)C(=O)O; CH2CON(CH2CH2)2NCH2COOH = O=C(O)CN1CCN(C(=O)C*)CC1; NMePhe(4-COOH) = CN[C@@H](Cc1ccc(C(=O)O)cc1)C(=O)O; Nle(6-morpholino) = N[C@@H](CCCCN1CCOCC1)C(=O)O; Phe(3-COOH) = N[C@@H](Cc1cccc(C(=O)O)c1)C(=O)O; Trp(7-aza) = N[C@@H](Cc1c[nH]c2ncccc12)C(=O)O; NH(CH2CH2O)8Me = COCCOCCOCCOCCOCCOCCOCCOCCN*; NMePhe(3-Cl) = CN[C@@H](Cc1cccc(Cl)c1)C(=O)O; Piperazinyl(4-CH2COOH) = O=C(O)CN1CCN(*)CC1; 3Pal(6-NH2) = Nc1ccc(C[C@H](N)C(=O)O)cn1; NMeW = CN[C@@H](Cc1c[nH]c2ccccc12)C(=O)O; Lys(N3) = [N-]=[N+]=NCCCC[C@H](N)C(=O)O; NMeY = CN[C@@H](Cc1ccc(O)cc1)C(=O)O; Nva(3-Et) = CCC(CC)[C@H](N)C(=O)O; 4Pal = N[C@@H](Cc1ccncc1)C(=O)O; PEG4 = NCCOCCOCCOCCOCCC(=O)O; Carboxymethyl = O=C(O)C*; CO = O=C([*:1])[*:2]; NH(CH2)3NH2 = NCCCN*

Experiments:
[1] = target: T1, human transferrin receptor (hTfR) (Homo sapiens, UniProt P02786); assay: SPR measurement under pH 7.4 conditions (Biacore T200, CM3 chip, hTfR captured by His Tag antibody); assay type: binding; conditions: pH 7.4, single-cycle kinetics; read-out: hTfR SPR pH7.4 KD
T1 sequence (P02786 whole entry): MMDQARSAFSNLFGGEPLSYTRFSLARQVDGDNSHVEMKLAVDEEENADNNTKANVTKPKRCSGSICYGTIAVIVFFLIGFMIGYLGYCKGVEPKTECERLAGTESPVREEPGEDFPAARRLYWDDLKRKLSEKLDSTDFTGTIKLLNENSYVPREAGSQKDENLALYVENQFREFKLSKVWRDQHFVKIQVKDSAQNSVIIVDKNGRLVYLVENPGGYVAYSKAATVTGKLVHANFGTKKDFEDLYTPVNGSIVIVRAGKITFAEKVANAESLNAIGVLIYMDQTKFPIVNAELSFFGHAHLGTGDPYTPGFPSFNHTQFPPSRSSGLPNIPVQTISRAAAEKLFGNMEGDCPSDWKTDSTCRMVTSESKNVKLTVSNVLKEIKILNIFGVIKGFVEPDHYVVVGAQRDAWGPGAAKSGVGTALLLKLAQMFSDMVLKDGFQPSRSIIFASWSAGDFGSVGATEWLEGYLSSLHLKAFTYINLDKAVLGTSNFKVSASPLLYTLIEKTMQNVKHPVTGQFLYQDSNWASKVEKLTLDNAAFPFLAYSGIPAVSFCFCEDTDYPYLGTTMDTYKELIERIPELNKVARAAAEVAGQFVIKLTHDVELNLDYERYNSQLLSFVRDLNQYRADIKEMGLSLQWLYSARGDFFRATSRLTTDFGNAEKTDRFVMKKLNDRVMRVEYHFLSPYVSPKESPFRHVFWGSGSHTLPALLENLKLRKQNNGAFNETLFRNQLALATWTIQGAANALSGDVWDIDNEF

[2] = target: T1, human transferrin receptor (hTfR); assay: SPR measurement under pH 6.0 conditions (Biacore T200, NTA chip, immobilized hTfR); assay type: binding; conditions: pH 6.0, single-cycle kinetics; read-out: hTfR SPR pH6.0 KD

SMILES	Kd [1] [nM]	Kd [2] [nM]
CCC(CC)[C@@H]1NC(=O)[C@H](Cc2ccc(OCC(=O)O)cc2)NC(=O)[C@H](Cc2ccc(O)cc2)NC(=O)[C@H](CC(N)=O)NC(=O)[C@H](Cc2cnc3ccccn23)NC(=O)[C@H](C(C)C)NC(=O)[C@H](Cc2cccc(Cl)c2)N(C)C(=O)[C@H](C(C)C)NC(=O)[C@H](C)NC(=O)CSC[C@@H](C(=O)NCC(=O)N[C@@H](CCCCN=[N+]=[N-])C(N)=O)NC(=O)[C@H](Cc2ccc(O)cc2)N(C)C(=O)[C@H](Cc2cccc(C(=O)O)c2)NC(=O)[C@H](CCCNC(=N)N)NC(=O)[C@H](CCC(N)=O)NC(=O)[C@H]([C@@H](C)CC)NC1=O [compound 67] ({CH2CO}-AV[NMePhe(3-Cl)]V[Ala(imidazo(1,2-a)pyr3yl)]NYY(Carboxymethyl)[Nva(3-Et)]IQR[Phe(3-COOH)][NMeY]CG[Lys(N3)]-NH2; thioether N-15)	21.6	444
CC[C@H](C)[C@@H]1NC(=O)[C@H](Cc2ccc(OC)cc2)NC(=O)[C@H](CCCNC(=N)N)NC(=O)[C@H](CC(N)=O)NC(=O)[C@H](Cc2c[nH]c3ccccc23)N(C)C(=O)[C@H](C(C)C)NC(=O)[C@H](Cc2cccc(Cl)c2)N(C)C(=O)[C@H](C(C)C)NC(=O)[C@H](C)NC(=O)CSC[C@@H](C(=O)NCCOCCOCCOCCOCCC(N)=O)NC(=O)[C@H](Cc2ccc(O)cc2)N(C)C(=O)[C@H](Cc2ccccc2)NC(=O)[C@H](CCCNC(=N)N)NC(=O)[C@H](CCC(=O)NCCCN)NC(=O)[C@H]([C@@H](C)CC)NC1=O [compound 175] ({CH2CO}-AV[NMePhe(3-Cl)]V[NMeW]NRY(Me)IIE(NH(CH2)3NH2)RF[NMeY]C[PEG4]-NH2; thioether N-15)	3.04	12.2
CCC(CC)[C@@H]1NC(=O)[C@H](Cc2ccc(OCC(=O)N3CCN(CC(=O)O)CC3)cc2)NC(=O)[C@H](Cc2ccc(O)cc2)NC(=O)[C@H](CC(N)=O)NC(=O)[C@H](Cc2cn(CC(=O)O)c3ccccc23)NC(=O)[C@H](C(C)C)NC(=O)[C@H](Cc2cccc(Cl)c2)N(C)C(=O)[C@H](C(C)C)NC(=O)[C@H](C)NC(=O)CSC[C@@H](C(=O)NCCOCCOCCOCCOCCC(N)=O)NC(=O)[C@H](Cc2ccc(C(=O)O)cc2)N(C)C(=O)[C@H](Cc2cccc(C(=O)O)c2)NC(=O)[C@H](CCCCN2CCOCC2)NC(=O)[C@H](CCCCN2CCOCC2)NC(=O)[C@H]([C@@H](C)CC)NC1=O [compound 55] ({CH2CO}-AV[NMePhe(3-Cl)]V[Trp(1-CH2COOH)]NYY(CH2CON(CH2CH2)2NCH2COOH)[Nva(3-Et)]I[Nle(6-morpholino)][Nle(6-morpholino)][Phe(3-COOH)][NMePhe(4-COOH)]C[PEG4]-NH2; thioether N-15)	26.4	38.5
CC[C@H](C)[C@@H]1NC(=O)[C@H](Cc2ccc(OCC(=O)NC[C@H](O)[C@@H](O)[C@H](O)[C@H](O)CO)cc2)NC(=O)[C@H](Cc2ccc(N)nc2)NC(=O)[C@H](CC(N)=O)NC(=O)[C@H](Cc2c[nH]c3ncccc23)NC(=O)[C@H](C(C)C)NC(=O)[C@H](Cc2cccc(Cl)c2)N(C)C(=O)[C@H](C(C)C)NC(=O)[C@H](C)NC(=O)CSC[C@@H](C(=O)NCCOCCOCCOCCOCCC(N)=O)NC(=O)[C@H](Cc2ccc(O)cc2)N(C)C(=O)[C@H](Cc2ccncc2)NC(=O)[C@H](CCCNC(=N)N)NC(=O)[C@H](CCC(=O)NC[C@H](O)[C@@H](O)[C@H](O)[C@H](O)CO)NC(=O)[C@H]([C@@H](C)CC)NC1=O [compound 12]	7.12	137
CC[C@H](C)[C@@H]1NC(=O)[C@H](Cc2ccc(OC)cc2)NC(=O)[C@H](Cc2ccc(N)nc2)NC(=O)[C@H](CC(N)=O)NC(=O)[C@H](Cc2c[nH]c3ncccc23)NC(=O)[C@H](C(C)C)NC(=O)[C@H](Cc2cccc(Cl)c2)N(C)C(=O)[C@H](C(C)C)NC(=O)[C@H](C)NC(=O)CSC[C@@H](C(=O)NCCOCCOCCOCCOCCC(N)=O)NC(=O)[C@H](Cc2ccc(O)cc2)N(C)C(=O)[C@H](Cc2ccncc2)NC(=O)[C@H](CCCCN2CCOCC2)NC(=O)[C@H](CCCNC(=N)N)NC(=O)[C@H]([C@@H](C)CC)NC1=O [compound 3] ({CH2CO}-AV[NMePhe(3-Cl)]V[Trp(7-aza)]N[3Pal(6-NH2)]Y(Me)IIR[Nle(6-morpholino)][4Pal][NMeY]C[PEG4]-NH2; thioether N-15)	2.63	16.1
CC[C@H](C)[C@@H]1NC(=O)[C@H](Cc2ccc(OCC(=O)N3CCN(CC(=O)O)CC3)cc2)NC(=O)[C@H](Cc2ccc(O)cc2)NC(=O)[C@H](CC(N)=O)NC(=O)[C@H](Cc2cn(CC(=O)O)c3ccccc23)NC(=O)[C@H](C(C)C)NC(=O)[C@H](Cc2cccc(Cl)c2)N(C)C(=O)[C@H](C(C)C)NC(=O)[C@H](C)NC(=O)CSC[C@@H](C(=O)NCCOCCOCCOCCOCCC(N)=O)NC(=O)[C@H](Cc2ccc(O)cc2)N(C)C(=O)[C@H](Cc2ccccc2)NC(=O)[C@H](CCCCN2CCOCC2)NC(=O)[C@H](CCC(=O)NCCOCCOCCOCCOCCOCCOCCOCCOC)NC(=O)[C@H]([C@@H](C)CC)NC1=O [compound 30] ({CH2CO}-AV[NMePhe(3-Cl)]V[Trp(1-CH2COOH)]NYY(CH2CON(CH2CH2)2NCH2COOH)IIE(NH(CH2CH2O)8Me)[Nle(6-morpholino)]F[NMeY]C[PEG4]-NH2; thioether N-15)	10.2	95.6
CCC(CC)[C@@H]1NC(=O)[C@H](Cc2ccc(OCC(=O)O)cc2)NC(=O)[C@H](Cc2ccc(N)nc2)NC(=O)[C@H](CC(N)=O)NC(=O)[C@H](Cc2cn(CC(=O)O)c3ccccc23)NC(=O)[C@H](C(C)C)NC(=O)[C@H](Cc2cccc(Cl)c2)N(C)C(=O)[C@H](C(C)C)NC(=O)[C@H](C)NC(=O)CSC[C@@H](C(=O)NCCOCCOCCOCCOCCC(N)=O)NC(=O)[C@H](Cc2ccc(O)cc2)N(C)C(=O)[C@H](Cc2ccncc2)NC(=O)[C@H](CCCNC(=N)N)NC(=O)[C@H](CCC(=O)NCCOCCOCCOCCOCCOCCOCCOCCOC)NC(=O)[C@H]([C@@H](C)CC)NC1=O [compound 48] ({CH2CO}-AV[NMePhe(3-Cl)]V[Trp(1-CH2COOH)]N[3Pal(6-NH2)]Y(Carboxymethyl)[Nva(3-Et)]IE(NH(CH2CH2O)8Me)R[4Pal][NMeY]C[PEG4]-NH2; thioether N-15)	111	536
CC[C@H](C)[C@@H]1NC(=O)[C@H](Cc2ccc(OCC(=O)N3CCN(CC(=O)O)CC3)cc2)NC(=O)[C@H](Cc2ccc(O)cc2)NC(=O)[C@H](CC(N)=O)NC(=O)[C@H](Cc2cn(CC(=O)O)c3ccccc23)NC(=O)[C@H](C(C)C)NC(=O)[C@H](Cc2cccc(Cl)c2)N(C)C(=O)[C@H](C(C)C)NC(=O)[C@H](C)NC(=O)CSC[C@@H](C(=O)NCCOCCOCCOCCOCCC(N)=O)NC(=O)[C@H](Cc2ccc(O)cc2)N(C)C(=O)[C@H](Cc2ccncc2)NC(=O)[C@H](CCCNC(=N)N)NC(=O)[C@H](CCCCNC(=O)N2CCN(CC(=O)O)CC2)NC(=O)[C@H]([C@@H](C)CC)NC1=O [compound 34]	5.22	14.9
CC[C@H](C)[C@@H]1NC(=O)[C@H](Cc2ccc(OCC(=O)O)cc2)NC(=O)[C@H](Cc2ccc(O)cc2)NC(=O)[C@H](CC(N)=O)NC(=O)[C@H](Cc2c[nH]c3ncccc23)NC(=O)[C@H](C(C)C)NC(=O)[C@H](Cc2cccc(Cl)c2)N(C)C(=O)[C@H](C(C)C)NC(=O)[C@H](C)NC(=O)CSC[C@@H](C(=O)NCCOCCOCCOCCOCCC(N)=O)NC(=O)[C@H](Cc2ccc(O)cc2)N(C)C(=O)[C@H](Cc2ccncc2)NC(=O)[C@H](CCCNC(=N)N)NC(=O)[C@H](CCC(=O)NCCOCCOCCOCCOCCOCCOCCOCCOCCC(=O)O)NC(=O)[C@H]([C@@H](C)CC)NC1=O [compound 62]	28.5	92.1
CC[C@H](C)[C@@H]1NC(=O)[C@H](Cc2ccc(OCC(=O)NC[C@H](O)[C@@H](O)[C@H](O)[C@H](O)CO)cc2)NC(=O)[C@H](Cc2ccc(O)cc2)NC(=O)[C@H](CC(N)=O)NC(=O)[C@H](Cc2c[nH]c3ncccc23)NC(=O)[C@H](C(C)C)NC(=O)[C@H](Cc2cccc(Cl)c2)N(C)C(=O)[C@H](C(C)C)NC(=O)[C@H](C)NC(=O)CSC[C@@H](C(=O)NCCOCCOCCOCCOCCC(N)=O)NC(=O)[C@H](Cc2ccc(O)cc2)N(C)C(=O)[C@H](Cc2ccncc2)NC(=O)[C@H](CCCCN2CCOCC2)NC(=O)[C@H](CCC(N)=O)NC(=O)[C@H]([C@@H](C)CC)NC1=O [compound 29]	2.17	11.1
CC[C@H](C)[C@@H]1NC(=O)[C@H](Cc2ccc(OCC(=O)N3CCN(CC(=O)O)CC3)cc2)NC(=O)[C@H](Cc2ccc(O)cc2)NC(=O)[C@H](CC(N)=O)NC(=O)[C@H](Cc2c[nH]c3ncccc23)NC(=O)[C@H](C(C)C)NC(=O)[C@H](Cc2cccc(Cl)c2)N(C)C(=O)[C@H](C(C)C)NC(=O)[C@H](C)NC(=O)CSC[C@@H](C(=O)NCCOCCOCCOCCOCCC(N)=O)NC(=O)[C@H](Cc2ccc(O)cc2)N(C)C(=O)[C@H](Cc2ccncc2)NC(=O)[C@H](CCCCN2CCOCC2)NC(=O)[C@H](CCCCNC(=O)N2CCN(CC(=O)O)CC2)NC(=O)[C@H]([C@@H](C)CC)NC1=O [compound 19] ({CH2CO}-AV[NMePhe(3-Cl)]V[Trp(7-aza)]NYY(CH2CON(CH2CH2)2NCH2COOH)IIK([CO-Piperazinyl(4-CH2COOH)])[Nle(6-morpholino)][4Pal][NMeY]C[PEG4]-NH2; thioether N-15)	4.82	7.92
CC[C@H](C)[C@@H]1NC(=O)[C@H](Cc2ccc(OC)cc2)NC(=O)[C@H](Cc2ccc(N)nc2)NC(=O)[C@H](CC(N)=O)NC(=O)[C@H](Cc2c[nH]c3ncccc23)NC(=O)[C@H](C(C)C)NC(=O)[C@H](Cc2cccc(Cl)c2)N(C)C(=O)[C@H](C(C)C)NC(=O)[C@H](C)NC(=O)CSC[C@@H](C(=O)NCC(=O)N[C@@H](CCCCN=[N+]=[N-])C(N)=O)NC(=O)[C@H](Cc2ccc(O)cc2)N(C)C(=O)[C@H](Cc2ccncc2)NC(=O)[C@H](CCCNC(=N)N)NC(=O)[C@H](CCCNC(=N)N)NC(=O)[C@H]([C@@H](C)CC)NC1=O [compound 66]	2.27	16.1
